The values that follow come from patent publication US12145936B1, “7-Imino-5-(1H-indol-3-yl)-1,3-substituted-7,8-dihdropyrimido[4,5-d]pyrimidine-2,4(1H,3H)-dione as anti-inflammatory agents” (KING FAISAL UNIVERSITY, priority 2023, dated 2024).

Each structure is given as a SMILES string.

This experiment deals with T1, human COX-2 enzyme (Homo sapiens, UniProt P35354).
T1 construct: purchased
T1 sequence (P35354 18-604): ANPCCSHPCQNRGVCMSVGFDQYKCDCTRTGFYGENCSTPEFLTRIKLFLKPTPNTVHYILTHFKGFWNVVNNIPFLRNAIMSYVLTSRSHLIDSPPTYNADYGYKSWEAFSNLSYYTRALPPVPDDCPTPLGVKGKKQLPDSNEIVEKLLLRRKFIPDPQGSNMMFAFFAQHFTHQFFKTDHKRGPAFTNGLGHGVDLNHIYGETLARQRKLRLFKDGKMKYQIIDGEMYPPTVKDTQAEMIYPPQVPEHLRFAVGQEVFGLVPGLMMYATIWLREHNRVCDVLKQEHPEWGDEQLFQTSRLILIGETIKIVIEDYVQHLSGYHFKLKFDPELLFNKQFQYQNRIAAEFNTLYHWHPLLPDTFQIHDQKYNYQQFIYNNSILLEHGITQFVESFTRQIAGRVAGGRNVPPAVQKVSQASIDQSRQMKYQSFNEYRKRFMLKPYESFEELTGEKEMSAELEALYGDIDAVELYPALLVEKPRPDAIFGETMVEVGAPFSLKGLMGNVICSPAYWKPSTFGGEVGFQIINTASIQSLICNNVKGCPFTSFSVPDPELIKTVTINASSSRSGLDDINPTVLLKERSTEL
Kind of experiment: Cyclooxygenases (COX-2) enzyme inhibition assay, COX (human) Inhibitor Screening Assay Kit with prostaglandin ELISA readout. In kind it is biochemical. Particulars: 10 μM compound, in vitro, ELISA plate incubation 18 hours, read-out: % Inhibition (COX-2) Mean ± SEM. How it is done:
According to manufacturer instructions, a COX inhibition assay was performed using COX (human) Inhibitor Screening Assay Kit for the compounds 7-imino-5-(1H-indol-3-yl)-1,3-substituted-7,8-dihydropyrimido[4,5-d]pyrimidine-2,4(1H,3H)-dione derivatives (4a-c). All reagents and buffers were prepared in ultrapure water. All stock solutions of the compounds and the positive controls (Indomethacin and Celecoxib) were dissolved in DMSO. In each inhibitor sample tube, 160 μL reaction buffer, 10 μL of heme, 10 μL of diluted COX-2 enzyme, and 10 μL of the diluted inhibitor was added to get a final concentration of 100 μM. […] 10 μL of the vehicle control (DMSO) was added to the background tubes, and COX enzyme's 100% initial activity was obtained. All reaction tubes were incubated for 10 minutes at 37° C. Following this incubation, 10 μL of the substrate, arachidonic acid (AA), was added to all test tubes, mixed, and further incubated for precisely 30 seconds at 37° C. Then, 30 μL of SnCl2 solution was added to each reaction tube to stop the enzyme catalysis. All reaction tubes were removed from the incubator, vortexed, and incubated again for 5 min at room temperature. Reaction tubes were stored at 4° C. to quantify the prostaglandin formation by competitive enzyme-linked immunosorbent assay (ELISA). ELISA standards were prepared in test tubes to perform the competitive ELISA, and dilutions were prepared with the ELISA buffer. The standards, COX reaction dilutions, and background samples were serially diluted. […] Blank (to assess the background absorbance caused by Ellman's reagent) and total activity (TA) (to determine the enzymatic activity of the AChE-linked tracer) wells were left empty, 100 μL and 50 μL of the ELISA buffer were added to the nonspecific binding (NSB) and maximum binding (B0), respectively. […] Finally, the plate reading was done at a wavelength of 405 nm with a Microplate reader from BioTek (by Agilent), and data were collected using Gen5™ (by Agilent) analysis software. […]
(In an ELISA, binding on a coated surface is turned into a signal by an enzyme label.)

As for `Cn1c(=O)c2c(-c3c[nH]c4ccccc34)nc(=N)[nH]c2n(C)c1=O` [Compound 4c, 7-Imino-5-(1H-indol-3-yl)-1,3-dimethyl-7,8-dihydropyrimido[4,5-d]pyrimidine-2,4(1H,3H)-dione], the inhibition at 10 µM was determined as 98 ± 1.53%.
In the case of `N=c1nc(-c2c[nH]c3ccccc23)c2c(=O)[nH]c(=S)[nH]c2[nH]1` [Compound 4b, 7-Imino-5-(1H-indol-3-yl)-2-thioxo-2,3,7,8-tetrahydropyrimido[4,5-d]pyrimidin-4(1H)-one] it was 88 ± 2.91%; in that of `N=c1nc(-c2c[nH]c3ccccc23)c2c(=O)[nH]c(=O)[nH]c2[nH]1` [Compound 4a, 7-Imino-5-(1H-indol-3-yl)-7,8-dihydropyrimido[4,5-d]pyrimidine-2,4(1H,3H)-dione], 23 ± 5.1%.

Usually inhibition stands for the relative decrease from the control value, in per cent.
